# Values joined by “and” are separate entries in the source; they are usually repeats but may differ in a detail not shown here. Equal entries are not always repeated. Marks after values point to notes of the source that are not given here.
# Experiments:
# PD-L1 mRNA [1] = assay: Change of PD-L1 expression level by JPH2O3, quantitative PCR in HuccT1 cells; assay type: cell-based, human; details: 30 μM, 24 hours treatment
# Procedure: (§1) The LAT1 activity was suppressed using an inhibitor JPH2O3 instead of the gene suppression using siRNA, and it was examined whether results similar to Test Example 5 would be obtained. JPH2O3 is O-(5-amino-2-phenylbenzoxazol-7-yl)methyl-3,5-dichloro-L-tyrosine. HuccT1 cells (derived from human bile duct cancer) and OST cells (derived from human fibrosarcoma of bone) were seeded in culture dishes. After treatment with 30 μM of JPH2O3 (LAT1 selective inhibitor) for 24 hours, cells were collected and mRNA expression levels of PD-L1 were analyzed by quantitative PCR.
# (§2) In Table 8, the mRNA expression levels per cell are expressed as relative values, with the expression level of the control that was not treated with JPH2O3 being 1. In both HuccT1 cells and OST cells, the expression of PD-L1 was increased. […] Moreover, since the inhibition of LAT1 increased the expression of PD-L1, it is considered that the LAT1 inhibition therapy can increase the expression level of PD-L1 as well as reduce the expression level or activity of LAT1 in patients. In other words, it is considered that the expression level of PD-L1 in patients can be brought close to those in patients of the P-predominance type by the LAT1 inhibition therapy.
# PD-L1 mRNA [2] = assay: Change of PD-L1 expression level by JPH2O3, quantitative PCR in OST cells; assay type: cell-based, human; details: 30 μM, 24 hours treatment
# Procedure: as §1, §2
# [3] = tested on: advanced non-small cell lung cancers (Stage III/IV); assay: Response to nivolumab in non-small cell lung cancer patients, determined by CT in accordance with RECIST; assay type: in vivo, human
# Procedure: Cancer tissues were collected from 21 patients with first line anticancer therapy resistant/relapsed advanced non-small cell lung cancers (Stage III/IV) incorporated in this examination, and the expressions of LAT1 and PD-L1 were examined by immunohistochemistry using an anti-LAT1 antibody and an anti-PD-L1 antibody. Tumors were determined as positive when the cell membrane of the tumors, together with PD-L1 and LAT1, were stained. Tumors having 10% or more of PD-L1-positive cells were defined as having high PD-L1 expression, and tumors having 25% or more of LAT1-positive cells were defined as having high LAT1 expression.
# The response rate was evaluated in accordance with the international criteria for which the tumor sizes are measured by CT and the tumors are classified into response, progression, or stable. The response refers to cases where 30% or more decrease is observed in the longer axis of the tumor after the administration of the agent. The progression refers to cases where the 20% or more increase is observed in the longer axis of the tumor after the administration of the agent. The stable refers to cases where the shrinkage of the tumor is insufficient to classify it as response and the increase of the tumor in comparison with the minimum sum of the longest axis after the start of the therapy is insufficient to classify it as progression.
# PD-L1 mRNA [4] = assay: siRNA knockdown, PD-L1 mRNA by quantitative PCR in H520 cells; assay type: cell-based, human; details: 48 hours after siRNA introduction, relative value with control siRNA = 1, n = 4
# Procedure: (§3) The suppression of mRNA expression of PD-L1 or LAT1 at the transcriptional level was attempted using siRNA. WiDr cells (derived from human colon-adenocarcinoma), SKN cells (human uterine leiomyosarcoma cells), and H520 cells (human pulmonary squamous cell carcinoma cells) were seeded in culture dishes. siRNA that suppresses the mRNA expression of PD-L1, siRNA that suppresses the mRNA expression of LAT1, or a control siRNA was introduced into cells. As the siRNA, Silencer (registered trademark) Select siRNAs of the Ambion (registered trademark) series from Thermo Fisher Scientific K.K. Specifically, siPD-L1 #2 (siRNA ID: s26548) set forth in SEQ ID NOs: 1 and 2 was used as the siRNA for suppressing the mRNA expression of PD-L1, siLAT1 #3 (siRNA ID: s15653) set forth in SEQ ID NOs: 3 and 4 was used as the siRNA for suppressing the mRNA expression of LAT1, and Silencer Select Negative control #2 (Cat #: 390847) was used as the control siRNA. Cells were collected 48 hours later, when the suppression effect on expression tends to be prominent, and mRNA expression levels of LAT1 and PD-L1 per cell were analyzed by quantitative PCR.
# (§4) In Table 7, the mRNA expression levels per cell are expressed as relative values, with the mRNA expression level in the cells, to which the control siRNA was introduced, being 1. […]
# LAT1 mRNA [5] = assay: siRNA knockdown, LAT1 mRNA by quantitative PCR in WiDr cells; assay type: cell-based, human; details: 48 hours after siRNA introduction, relative value with control siRNA = 1, n = 4
# Procedure: as §3, §4
# LAT1 mRNA [6] = assay: siRNA knockdown, LAT1 mRNA by quantitative PCR in SKN cells; assay type: cell-based, human; details: 48 hours after siRNA introduction, relative value with control siRNA = 1, n = 4
# Procedure: as §3, §4
# LAT1 mRNA [7] = assay: siRNA knockdown, LAT1 mRNA by quantitative PCR in H520 cells; assay type: cell-based, human; details: 48 hours after siRNA introduction, relative value with control siRNA = 1, n = 4
# Procedure: as §3, §4
# PD-L1 mRNA [8] = assay: siRNA knockdown, PD-L1 mRNA by quantitative PCR in SKN cells; assay type: cell-based, human; details: 48 hours after siRNA introduction, relative value with control siRNA = 1, n = 4
# Procedure: as §3, §4
# PD-L1 mRNA [9] = assay: siRNA knockdown, PD-L1 mRNA by quantitative PCR in WiDr cells; assay type: cell-based, human; details: 48 hours after siRNA introduction, relative value with control siRNA = 1, n = 4
# Procedure: as §3, §4
# [10] = relative value with untreated control = 1, n = 4
# [11] = relative value with untreated control = 1, n = 4, listed as JPH2O3
# [12] = PD-L1 high expression group (8 patients), RECIST
# [13] = PD-L1 low expression group (13 patients), RECIST
# [14] = high LAT1 expression group (9 patients), RECIST
# [15] = low LAT1 expression group (12 patients), RECIST
# [16] = single patient of FIG. 8, high PD-L1 and low LAT1 expression
compound,measurement,setting,value
"Nc1cc(COc2c(Cl)cc(C[C@H](N)C(=O)O)cc2Cl)c2oc(-c3ccccc3)nc2c1 [JPH203, O-(5-amino-2-phenylbenzoxazol-7-yl)methyl-3,5-dichloro-L-tyrosine]",PD-L1 mRNA expression level,PD-L1 mRNA [1]; [10],12.26**
same,PD-L1 mRNA expression level,PD-L1 mRNA [1]; [11],increased
same,PD-L1 mRNA expression level,PD-L1 mRNA [2]; [10],2.79*
same,PD-L1 mRNA expression level,PD-L1 mRNA [2]; [11],increased
nivolumab,patients exhibited a response,[3]; [12],4 patients
same,patients exhibited progression,[3]; [12],1 patient
same,patients exhibited a response,[3]; [13],3 patients
same,patients exhibited progression,[3]; [13],7 patients
same,patients exhibited a response,[3]; all 21 patients,7 patients
same,patients exhibited no response,[3]; all 21 patients,14 patients
same,patients exhibited progression,[3]; all 21 patients,7 patients
same,response rate,[3]; all 21 patients,33%
same,patients exhibited a response,[3]; [14],1 patient
same,patients exhibited progression,[3]; [14],6 patients and 5 patients
same,patients exhibited a response,[3]; [15],4 patients and 6 patients
same,patients exhibited progression,[3]; [15],3 patients and 2 patients
same,outcome of nivolumab treatment,[3]; [16],responded
same,progression-free survival,[3]; [16],≥ 10 months
same,outcome of nivolumab treatment,"[3]; single patient of FIG. 9, high LAT1 and low PD-L1 expression",progression
same,outcome of nivolumab treatment,"[3]; single patient of FIG. 10, high PD-L1 and high LAT1 expression",progression
"si-LAT1: Silencer Select siRNA set forth in SEQ ID NOs: 3 and 4, suppressing the mRNA expression of LAT1 (chain 1 UGUCCAAUCUAGAUCCCAATT; chain 2 UUGGGAUCUAGAUUGGACACA; chemistry not given here)",PD-L1 mRNA expression level,PD-L1 mRNA [4],0.82***
same,LAT1 mRNA expression level,LAT1 mRNA [5],0.11
same,LAT1 mRNA expression level,LAT1 mRNA [6],0.06
same,LAT1 mRNA expression level,LAT1 mRNA [7],0.11
same,PD-L1 mRNA expression level,PD-L1 mRNA [8],1.04***
same,PD-L1 mRNA expression level,PD-L1 mRNA [9],1.82***
"si-PD-L1: Silencer Select siRNA set forth in SEQ ID NOs: 1 and 2, suppressing the mRNA expression of PD-L1 (chain 1 GGACUCACUUGGUAAUUCUTT; chain 2 AGAAUUACCAAGUGAGUCCTT; chemistry not given here)",PD-L1 mRNA expression level,PD-L1 mRNA [4],0.37
same,LAT1 mRNA expression level,LAT1 mRNA [5],5.01***
same,LAT1 mRNA expression level,LAT1 mRNA [6],1.52***
same,LAT1 mRNA expression level,LAT1 mRNA [7],2.29***
same,PD-L1 mRNA expression level,PD-L1 mRNA [8],0.24
same,PD-L1 mRNA expression level,PD-L1 mRNA [9],0.46

# — patent US11899019B2, “Method for predicting efficacy of anti-PD-1 antibody or anti-PD-L1 antibody therapy, method for evaluating cancer grade, and method for enhancing efficacy of anti-PD-1 antibody or anti-PD-L1 antibody therapy” (J-Pharma Co., Ltd., priority 2017, dated 2024)
